In patent US20220339143A1, “TAK-925 FOR USE IN TREATING NARCOLEPSY” (Takeda Pharmaceutical Company Limited, priority 2019, published 2022):
Where two headings read alike, the source gives them in different places.

Assay: Single dose PK in healthy subjects (Cohorts 1, 2, S1 and S2), plasma
Type: in vivo, human
Conditions: human, plasma, intravenous
Experimental: This study investigates (i) the safety and tolerability of Compound A (methyl (2R,3S)-3-((methylsulfonyl)amino)-2-(((cis-4-phenylcyclohexyl)oxy)methyl)piperidine-1-carboxylate) when a single dose given as a 9 hour continuous IV infusion is administered to healthy adults, healthy elderly subjects and patients with narcolepsy type 1 (NT1); (ii) the pharmacokinetics of Compound A when a single dose given as a 9 hour continuous IV infusion is administered to healthy adults, healthy elderly subjects and patients with narcolepsy type 1; and (iii) the pharmacodynamics (PD) effects of Compound A, primarily by evaluation of the sleep latency on MWT when a single dose given as a 9 hour continuous IV infusion is administered to patients with narcolepsy type 1.
Pharmacokinetics: Concentrations of Compound A in plasma, and CSF, and pharmacokinetics parameters.
On average, the time to reach the plateau appeared to be approximately 3 to 4 hours after the start of infusion. […] After switching off the IV infusion, Compound A plasma concentrations declined rapidly and in a biphasic manner with a mean terminal disposition phase t1/2z ranging approximately from 3.4 to 5.1 hours across all doses. […] Table 5 provides a summary of plasma concentrations of Compound A after a single IV infusion in healthy subjects. Table 6 provides a summary of pharmacokinetic parameters of Compound A after a single IV infusion in healthy subjects.

[1] = 112 mg, read-out: Plasma concentration, Median
[2] = 112 mg, read-out: Plasma concentration, Minimum
[3] = 112 mg, read-out: Plasma concentration, Q1
[4] = 112 mg, read-out: Plasma concentration, Q3
[5] = 112 mg, read-out: Plasma concentration, Maximum
[6] = 112 mg, read-out: Plasma concentration, Mean
[7] = 134.4 mg, read-out: Plasma concentration, Maximum
[8] = 134.4 mg, read-out: Plasma concentration, Mean
[9] = 134.4 mg, read-out: Plasma concentration, Median
[10] = 134.4 mg, read-out: Plasma concentration, Minimum
[11] = 134.4 mg, read-out: Plasma concentration, Q1
[12] = 134.4 mg, read-out: Plasma concentration, Q3

COC(=O)N1CCC[C@H](NS(C)(=O)=O)[C@@H]1CO[C@H]1CC[C@@H](c2ccccc2)CC1 [Compound A, methyl (2R,3S)-3-((methylsulfonyl)amino)-2-(((cis-4-phenylcyclohexyl)oxy)methyl)piperidine-1-carboxylate]
concentration at 1.5 h [1]: 197 ng/mL
concentration at 1.5 h [2]: 141 ng/mL
concentration at 1.5 h [3]: 164 ng/mL
concentration at 1.5 h [4]: 213 ng/mL
concentration at 2 h [5]: 223 ng/mL
concentration at 2 h [6]: 200 ng/mL
concentration at 2 h [1]: 207 ng/mL
concentration at 2 h [2]: 150 ng/mL
concentration at 2 h [3]: 195 ng/mL
concentration at 2 h [4]: 220 ng/mL
concentration at 3 h [5]: 276 ng/mL
concentration at 3 h [6]: 222 ng/mL
concentration at 3 h [1]: 216 ng/mL
concentration at 3 h [2]: 171 ng/mL
concentration at 3 h [3]: 209 ng/mL
concentration at 3 h [4]: 248 ng/mL
concentration at 4 h [5]: 290 ng/mL
concentration at 4 h [6]: 224 ng/mL
concentration at 4 h [1]: 216 ng/mL
concentration at 4 h [2]: 154 ng/mL
concentration at 4 h [3]: 215 ng/mL
concentration at 4 h [4]: 252 ng/mL
concentration at 6 h [5]: 206 ng/mL
concentration at 6 h [6]: 189 ng/mL
concentration at 6 h [1]: 192 ng/mL
concentration at 6 h [2]: 154 ng/mL
concentration at 6 h [3]: 186 ng/mL
concentration at 6 h [4]: 205 ng/mL
concentration at 8 h [5]: 221 ng/mL
concentration at 8 h [6]: 194 ng/mL
concentration at 8 h [1]: 195 ng/mL
concentration at 8 h [2]: 162 ng/mL
concentration at 8 h [3]: 176 ng/mL
concentration at 8 h [4]: 216 ng/mL
concentration at 9 h [5]: 247 ng/mL
concentration at 9 h [6]: 216 ng/mL
concentration at 9 h [1]: 221 ng/mL
concentration at 9 h [2]: 169 ng/mL
concentration at 9 h [3]: 192 ng/mL
concentration at 9 h [4]: 245 ng/mL
concentration at 0.5 h [7]: 201 ng/mL
concentration at 0.5 h [8]: 162 ng/mL
concentration at 0.5 h [9]: 152 ng/mL
concentration at 0.5 h [10]: 147 ng/mL
concentration at 0.5 h [11]: 148 ng/mL
concentration at 0.5 h [12]: 169 ng/mL
concentration at 1 h [7]: 273 ng/mL
concentration at 1 h [8]: 204 ng/mL
concentration at 1 h [9]: 187 ng/mL
concentration at 1 h [10]: 181 ng/mL
concentration at 1 h [11]: 181 ng/mL
concentration at 1 h [12]: 216 ng/mL
concentration at 1.5 h [7]: 289 ng/mL
concentration at 1.5 h [8]: 228 ng/mL
concentration at 1.5 h [9]: 221 ng/mL
concentration at 1.5 h [10]: 191 ng/mL
concentration at 1.5 h [11]: 197 ng/mL
concentration at 1.5 h [12]: 250 ng/mL
concentration at 2 h [7]: 335 ng/mL
concentration at 2 h [8]: 248 ng/mL
concentration at 2 h [9]: 244 ng/mL
concentration at 2 h [10]: 192 ng/mL
concentration at 2 h [11]: 199 ng/mL
concentration at 2 h [12]: 276 ng/mL
concentration at 3 h [7]: 388 ng/mL
concentration at 3 h [8]: 288 ng/mL
concentration at 3 h [9]: 278 ng/mL
concentration at 3 h [10]: 217 ng/mL
concentration at 3 h [11]: 260 ng/mL
concentration at 3 h [12]: 305 ng/mL
concentration at 4 h [7]: 355 ng/mL
concentration at 4 h [8]: 294 ng/mL
concentration at 4 h [9]: 308 ng/mL
concentration at 4 h [10]: 214 ng/mL
concentration at 4 h [11]: 256 ng/mL
concentration at 4 h [12]: 324 ng/mL
concentration at 6 h [7]: 302 ng/mL
concentration at 6 h [8]: 248 ng/mL
concentration at 6 h [9]: 260 ng/mL
concentration at 6 h [10]: 164 ng/mL
concentration at 6 h [11]: 206 ng/mL
concentration at 6 h [12]: 295 ng/mL
concentration at 8 h [7]: 313 ng/mL
concentration at 8 h [8]: 262 ng/mL
concentration at 8 h [9]: 262 ng/mL
concentration at 8 h [10]: 199 ng/mL
concentration at 8 h [11]: 242 ng/mL
concentration at 8 h [12]: 291 ng/mL
concentration at 9 h [7]: 330 ng/mL
concentration at 9 h [8]: 292 ng/mL
concentration at 9 h [9]: 300 ng/mL
concentration at 9 h [10]: 241 ng/mL
concentration at 9 h [11]: 268 ng/mL
concentration at 9 h [12]: 311 ng/mL
concentration at 0.5 h (180 mg, read-out: Plasma concentration, Maximum): 224 ng/mL
concentration at 0.5 h (180 mg, read-out: Plasma concentration, Mean): 180 ng/mL
concentration at 0.5 hr (180 mg, read-out: Plasma concentration, Median): 170 ng/mL
concentration at 0.5 hr (180 mg, read-out: Plasma concentration, Minimum): 161 ng/mL
concentration at 0.5 hr (180 mg, read-out: Plasma concentration, Q1): 163 ng/mL
concentration at 0.5 hr (180 mg, read-out: Plasma concentration, Q3): 194 ng/mL
